Reference: patent US6306846A, “Anti-inflammatory and anti-ulcer compounds and process” (priority 1995, dated 2001)

Legend:
[1] = Anti-inflammatory test models, overall statement; assay type: in vivo, rat; settings: using only one test model
Text: In order to test the anti-inflammatory activities of my copper coordination compounds, the following test models were employed:
(§1) (1) Carrageen in Foot Edema Model as described in Experentia, 6, pp. 469-71, "Zur Frage des Mechanis Mos der Hemmung des Bindegebswachstums durch Cortisone" (1950);
(2) Cotton Wad Granuloma Model as described in J. Pharmacol. Expt'l. Ther., 141, pp. 369-76, "Anti-inflammatory and Antipyretic Activities of Indomethacin, 9-(p-chlorobenzoyl)-5-Methoxy-2-Methyl-Indole-3-Acetic Acid" (1963); and
(3) Polyarthritis Model as described in Nature, 224, pp. 1320-21, "Effect of Prostaglandin E2 on Adjuvant Arthritis" (1969).

[2] = in vivo; settings: for TI CFE / TI PA / selectivity ratio: ratio of lethal dose to effective dose
Text: In addition to the foregoing anti-inflammatory and anti-ulcer tests, several LD50 tests [performed in accordance with Miller et al, Proceed. of The Society of Expt'l. Medicine, 57, p.

[3] = Carrageenin Foot Edema Model; assay type: in vivo, rat (male, Sprague Dawley); settings: hydrocortisone comparison; model not given
Protocol: as §1
The foregoing literature references were followed in the following tests unless otherwise stated and they are incorporated by reference herein. Each test model will only be briefly described. Each test model is a recognized and accepted model for testing drugs for the treatment of arthritis.
In this test model test rats were injected with carrageenin in a hind paw one hour after administration of the copper coordination compound. The carrageenin induced inflammation. The rats were male, of the Sprague Dawley variety and weighed on the average 120 grams. The copper coordination compounds were first introduced subcutaneously. The dosages were compounded as follows:
The suspending agent was Tween 80, a nonionic surfactant sold by the Atlas Powder Company. A full description of it is contained at p. 648 of Remingtons Practice of Pharmacy (11th ed., Martin & Cook, The Mack Publishing Co., Easton Pa. 1956). Generally they may be described as a complex mixture of polyoxyethylene ethers of mixed oleic esters of sorbitol anhydrides. The initial screening dosage was 25 mg of the copper coordination compound given in one injection to ten rats. Compounds which were active received further testing at 5.0 mg and lower dosages. Each dosage was administered to at least ten rats. A dose was rated active if it caused a significant decrease (P<0.05) in the circumference of the feet injected with carrageenin six hours after administration. […] As a reference standard, saline solution plus suspending agent was subcutaneously administered to each of the ten rats.

Molecule: N[C@@H](Cc1c[nH]c2ccccc12)C(=O)[O-].N[C@@H](Cc1c[nH]c2ccccc12)C(=O)[O-].[Cu+2] (racemic) [Example 16, Bis(D,L-tryptophanato(O,N)copper(II)]
- anti-inflammatory activity at the initial screening tests [1]: no anti-inflammatory activity

Molecule: NC(Cc1c[nH]c2ccccc12)C(=O)[O-].NC(Cc1c[nH]c2ccccc12)C(=O)[O-].[Cu+2] [Example 1, Bis-L-tryptophanato(O,N)copper(II)]
- anti-inflammatory activity at the initial screening tests [1]: no anti-inflammatory activity

Molecule: Nc1ccccc1C(=O)[O-].Nc1ccccc1C(=O)[O-].[Cu+2] [Example 3, Bisanthranilato(O,N)copper(II)]
- LD50 ([2]; SC): 750 ± 106 mpk
- TI CFE ([2]; CFE (carrageenin foot edema)): 150
- TI PA ([2]; PA (polyarthritis)): 750
- % potency compared with hydrocortisone [3]: 60%

Molecule: CC(C)c1cc(C(=O)[O-])c(O)c(C(C)C)c1.CC(C)c1cc(C(=O)[O-])c(O)c(C(C)C)c1.[Cu+2] [Example 4]
- LD50 ([2]; SC): 240 ± 33 mpk
- TI CFE ([2]; CFE (carrageenin foot edema)): 48
- TI PA ([2]; PA (polyarthritis)): 240
- % potency compared with hydrocortisone [3]: 50%

Molecule: CC(=O)Oc1ccccc1C(=O)[O-].CC(=O)Oc1ccccc1C(=O)[O-].CC(=O)Oc1ccccc1C(=O)[O-].CC(=O)Oc1ccccc1C(=O)[O-].[Cu+2].[Cu+2] [Example 5, Tetra(μ-acetylsalicylato)biscopper(II)]
- LD50 ([2]; SC): 760 ± 100 mpk
- TI CFE ([2]; CFE (carrageenin foot edema)): 150
- TI PA ([2]; PA (polyarthritis)): 760
- % potency compared with hydrocortisone [3]: 130%

Molecule: CC(=O)Oc1ccccc1C(=O)O [aspirin, acetylsalicylic acid]
- LD50 ([2]; in vivo): 790 mg/kg
- LD50 ([2]; in vivo, po): 1500 mg/kg
- % potency compared with hydrocortisone [3]: 6%

Molecule: CC(=O)[O-].CC(=O)[O-].[Cu+2] [cupric acetate]
- LD50 ([2]; SC): 350 mpk
- TI CFE ([2]; CFE (carrageenin foot edema)): 70
- TI PA ([2]; PA (polyarthritis)): 0
- % potency compared with hydrocortisone [3]: 340%

Molecule: O=C(O)c1cccnc1Nc1cccc(C(F)(F)F)c1 [tpan, 2[3(trifluoro-methyl)phenyl]aminonicotinic acid]
- selectivity ratio ([2]; in vivo, TI CFE, CFE (carrageenin foot edema)): 15
- selectivity ratio ([2]; in vivo, TI PA, PA (polyarthritis)): 74
- LD50 ([2]; in vivo, po): 370 ± 25 mg/kg
- % potency compared with hydrocortisone [3]: 31%

Molecule: (3-p-chlorophenyl-3,4,5,6-tetrahydro-β-carboline-5-carboxylato)2n-(aqua)2n -copper(II)n [Example 30]
- anti-inflammatory activity at the initial screening tests [1]: no anti-inflammatory activity

Molecule: (17-Hydroxy-3-oxo-17α-pregn-4,6-diene-21-carboxalato)2n -(aqua)2n -copper(II)n [Example 41]
- anti-inflammatory activity at the initial screening tests [1]: no anti-inflammatory activity

Molecule: (D-penicillaminato)2n -(aqua)2n -copper(II)n [Example 8]
- anti-inflammatory activity at the initial screening tests [1]: no anti-inflammatory activity

Molecule: [2[3(trifluoromethyl)phenyl]aminonicotinato]2n -(aqua)n -copper(II)n [Example 6]
- LD50 ([2]; SC): 650 ± 80 mpk
- TI CFE ([2]; CFE (carrageenin foot edema)): 130
- TI PA ([2]; PA (polyarthritis)): 650
- % potency compared with hydrocortisone [3]: 180%
